Data published in ChEMBL document CHEMBL1201862, “PubChem BioAssay data set” (2004).
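Test compounds were applied to cells in 96-well plates for 48 hours at 5 doses. The concentration for 50% growth inhibition is given as GI50.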 Calls of active or inactive are those of the source. Cut-off read from the data, not from the text of the source: active = GI50 up to about 1.1 µM and inactive = higher.

Assays:
Experiment in all cases: NCI anticancer screen, dose series, 48 h
786-0 = system: 786-0
A498 = system: A498
A549 = system: A549
ACHN = system: ACHN
BT-549 = system: BT-549
CAKI-1 = system: CAKI-1
CCRF-CEM = system: CCRF-CEM
COLO 205 = system: COLO 205
DU-145 = system: DU-145
EKVX = system: EKVX
HCC 2998 = system: HCC 2998
HCT-116 = system: HCT-116
HCT-15 = system: HCT-15
HL-60 = system: HL-60
HOP-62 = system: HOP-62
HOP-92 = system: HOP-92
HT-29 = system: HT-29
Hs-578T = system: Hs-578T
IGROV-1 = system: IGROV-1
K562 = system: K562
KM12 = system: KM12
LOX IMVI = system: LOX IMVI
M14 = system: M14
MCF7 = system: MCF7
MDA-MB-231 = system: MDA-MB-231
MDA-MB-435 = system: MDA-MB-435
MDA-N = system: MDA-N
MOLT-4 = system: MOLT-4
Malme-3M = system: Malme-3M
NCI-H226 = system: NCI-H226
NCI-H23 = system: NCI-H23
NCI-H460 = system: NCI-H460
NCI-H522 = system: NCI-H522
NCI/ADR-RES = system: NCI/ADR-RES
OVCAR-3 = system: OVCAR-3
OVCAR-4 = system: OVCAR-4
OVCAR-5 = system: OVCAR-5
OVCAR-8 = system: OVCAR-8
PC-3 = system: PC-3
RPMI-8226 = system: RPMI-8226
RXF 393 = system: RXF 393
SF-268 = system: SF-268
SF-295 = system: SF-295
SF-539 = system: SF-539
SK-MEL-28 = system: SK-MEL-28
SK-MEL-2 = system: SK-MEL-2
SK-MEL-5 = system: SK-MEL-5
SK-OV-3 = system: SK-OV-3
SN12C = system: SN12C
SNB-19 = system: SNB-19
SNB-75 = system: SNB-75
SR = system: SR
SW-620 = system: SW-620
T47D = system: T47D
TK-10 = system: TK-10
U-251 = system: U-251
UACC-257 = system: UACC-257
UACC-62 = system: UACC-62
UO-31 = system: UO-31

In the case of `CCN(CC)CCCNc1nncc2c(C)c3[nH]c4ccc(OC)cc4c3cc12`, the GI50 (786-0) is reported as 0.222 µM (active), the GI50 (A498) is reported as 1.75 µM (inactive) and the GI50 (A549) is reported as 0.718 µM (active). For the same compound, the GI50 (ACHN) was 1.08 µM (active), the GI50 (BT-549) was 1.54 µM (inactive) and the GI50 (CAKI-1) was 8.41 µM (inactive). The GI50 (CCRF-CEM) was 0.0535 µM (active), the GI50 (COLO 205) was 1.03 µM (active) and the GI50 (DU-145) was 0.622 µM (active). For the same compound, the GI50 (EKVX) was 2.11 µM (inactive), the GI50 (HCC 2998) was 0.65 µM (active) and the GI50 (HCT-116) was 0.277 µM (active). The GI50 (HCT-15) was 10.3 µM, the GI50 (HL-60) was 0.91 µM (active) and the GI50 (HOP-62) was 0.525 µM (active). For the same compound, the GI50 (HOP-92) was 0.369 µM (active), the GI50 (HT-29) was 0.504 µM (active) and the GI50 (Hs-578T) was 0.482 µM (active). For the same compound, the GI50 (IGROV-1) was 0.356 µM (active), the GI50 (K562) was 0.14 µM (active) and the GI50 (KM12) was 0.592 µM (active). For the same compound, the GI50 (LOX IMVI) was 0.189 µM (active), the GI50 (M14) was 1.61 µM (inactive) and the GI50 (MCF7) was 0.0975 µM (active). For the same compound, the GI50 (MDA-MB-231) was 0.716 µM (active), the GI50 (MDA-MB-435) was 1.11 µM (active) and the GI50 (MDA-N) was 0.695 µM (active). The GI50 (MOLT-4) was 0.0173 µM (active), the GI50 (Malme-3M) was 0.916 µM (active) and the GI50 (NCI-H226) was 0.0557 µM (active). The GI50 (NCI-H23) was 0.421 µM (active), the GI50 (NCI-H460) was 0.789 µM (active) and the GI50 (NCI-H522) was 0.0256 µM (active). The GI50 (NCI/ADR-RES) was 38.8 µM (inactive), the GI50 (OVCAR-3) was 0.604 µM (active) and the GI50 (OVCAR-4) was 0.618 µM (active). The GI50 (OVCAR-5) was 1.25 µM (inactive), the GI50 (OVCAR-8) was 0.182 µM (active) and the GI50 (PC-3) was 0.358 µM (active). For the same compound, the GI50 (RPMI-8226) was 0.724 µM (active), the GI50 (RXF 393) was 1.32 µM (inactive) and the GI50 (SF-268) was 0.706 µM (active). The GI50 (SF-295) was 1.55 µM (inactive), the GI50 (SF-539) was 0.268 µM (active) and the GI50 (SK-MEL-28) was 0.766 µM (active). The GI50 (SK-MEL-2) was 1.02 µM (active), the GI50 (SK-MEL-5) was 0.935 µM (active) and the GI50 (SK-OV-3) was 1.17 µM (inactive). The GI50 (SN12C) was 0.271 µM (active), the GI50 (SNB-19) was 0.318 µM (active) and the GI50 (SNB-75) was 0.64 µM (active). The GI50 (SR) was 0.414 µM (active), the GI50 (SW-620) was 0.184 µM (active) and the GI50 (T47D) was 0.286 µM (active). For the same compound, the GI50 (TK-10) was 2.82 µM (inactive), the GI50 (U-251) was 0.304 µM (active) and the GI50 (UACC-257) was 2.35 µM (inactive). For the same compound, the GI50 (UACC-62) was 1.29 µM (inactive) and the GI50 (UO-31) was 3.17 µM (inactive).

For `O=C1Oc2ccccc2C(=O)/C1=C/N1C(=O)/C(=C/c2ccc([N+](=O)[O-])cc2)SC1=S`, the GI50 (786-0) was 30.5 µM (inactive), the GI50 (A498) was 7.91 µM (inactive) and the GI50 (A549) was 26.7 µM (inactive). The GI50 (ACHN) was 15.6 µM (inactive), the GI50 (BT-549) was 7.16 µM (inactive) and the GI50 (CAKI-1) was 24.5 µM (inactive). The GI50 (CCRF-CEM) was 34 µM (inactive), the GI50 (COLO 205) was 20.5 µM (inactive) and the GI50 (DU-145) was 25.7 µM (inactive). For the same compound, the GI50 (EKVX) was 54.1 µM (inactive), the GI50 (HCC 2998) was 19.1 µM (inactive) and the GI50 (HCT-116) was 19.3 µM (inactive). For the same compound, the GI50 (HCT-15) was 19.1 µM, the GI50 (HL-60) was 36.1 µM (inactive) and the GI50 (HOP-62) was 18.2 µM (inactive). The GI50 (HOP-92) was 1.08 µM (active), the GI50 (HT-29) was 32.6 µM (inactive) and the GI50 (Hs-578T) was 6.59 µM (inactive). The GI50 (IGROV-1) was 32.3 µM (inactive), the GI50 (K562) was 19.4 µM (inactive) and the GI50 (KM12) was 19 µM (inactive). For the same compound, the GI50 (LOX IMVI) was 29.6 µM (inactive), the GI50 (M14) was 22.8 µM (inactive) and the GI50 (MCF7) was 35.6 µM (inactive). The GI50 (MDA-MB-231) was 24.9 µM (inactive), the GI50 (MDA-MB-435) was 16.4 µM (inactive) and the GI50 (MDA-N) was 17.2 µM (inactive). For the same compound, the GI50 (MOLT-4) was 29.8 µM (inactive), the GI50 (Malme-3M) was 36.2 µM (inactive) and the GI50 (NCI-H226) was 15.1 µM (inactive). For the same compound, the GI50 (NCI-H23) was 14 µM (inactive), the GI50 (NCI-H460) was 18.5 µM (inactive) and the GI50 (NCI-H522) was 20.7 µM (inactive). For the same compound, the GI50 (NCI/ADR-RES) was 23.7 µM (inactive), the GI50 (OVCAR-3) was 2.71 µM (inactive) and the GI50 (OVCAR-4) was 20.8 µM (inactive). For the same compound, the GI50 (OVCAR-5) was 34.4 µM (inactive), the GI50 (OVCAR-8) was 21.8 µM (inactive) and the GI50 (PC-3) was 18.2 µM (inactive). The GI50 (RPMI-8226) was 5.65 µM (inactive), the GI50 (RXF 393) was 25.7 µM (inactive) and the GI50 (SF-268) was 23.2 µM (inactive). For the same compound, the GI50 (SF-295) was 17.7 µM (inactive), the GI50 (SF-539) was 21.8 µM (inactive) and the GI50 (SK-MEL-28) was 22.7 µM (inactive). The GI50 (SK-MEL-2) was 24 µM (inactive), the GI50 (SK-MEL-5) was 19.7 µM (inactive) and the GI50 (SK-OV-3) was 31.5 µM (inactive). For the same compound, the GI50 (SN12C) was 20.4 µM (inactive), the GI50 (SNB-19) was 21.9 µM (inactive) and the GI50 (SNB-75) was 16.6 µM (inactive). The GI50 (SR) was 31.6 µM (inactive), the GI50 (SW-620) was 21.8 µM (inactive) and the GI50 (T47D) was 5.98 µM (inactive). For the same compound, the GI50 (U-251) was 18.9 µM (inactive), the GI50 (UACC-257) was 25.8 µM (inactive) and the GI50 (UACC-62) was 17.9 µM (inactive).
